Where two headings read alike, the source gives them in different places. Where a SMILES comes first, the peptide text is derived from it. Bridges are numbered along the chain shown (N, C = ends).
Assays:
[1] = test system: 1:1 mixture of E. coli CVCC195 and S. aureus ATCC43300; assay type: cell-based, Escherichia coli; Staphylococcus aureus; conditions: Mean
Method: The selectivity of A6, G6, and N6 against Gram-negative and Gram-positive bacteria was determined using the mixed-culture bactericidal kinetics assay, as described in the Supplementary Information.
27 Supplementary Figure 6. Killing selectivity of peptides. A 1:1 mixture of E. coli (Ec) and S. aureus
28 (Sa) was treated with A6 (16 μg per ml), G6 (16 μg per ml) or N6 (2 μg per ml) for 1, 3 and 5 min,
29 respectively; survivors were counted in MH plates. The change in relative ratio of E. coli to S. aureus
30 (Ec/Sa) after treatment with A6, G6 or N6 is shown.
31 independent experiments).
(1 picture or pasted object on this page, not shown here)
102 Supplementary Methods
103 Mixed-culture bactericidal kinetics of SCPs-A6 and G6. The mid-exponential phage E. coli
104 CVCC195 and S. aureus ATCC43300 cultures were diluted to 2 × 10^5 CFU per ml, mixed (1:1) and
105 added into the 96-well plates. A6, G6 or N6 were added into each well of plates to final concentration
106 of 16 (A6 and G6) or 2 (N6) μg per ml in a 200-μl total volume. An aliquot was removed at 1, 3 and 5
107 min, respectively, and survivors were counted on MH solid plates1–3. […]

MDR E. coli CVCC195 [2] = experiment: pH stability, residual antibacterial activity (inhibition zone); assay type: physicochemical, Escherichia coli; conditions: inhibition zone vs E. coli CVCC195, mean of n = 3
Method: The N6, A6, and G6 solutions were treated at different temperatures (20–100 °C) for 1 h, dissolved and incubated at different pH values (2–10) for 3 h, or incubated with trypsin or pepsin for 4 h. The inhibition zone diameters were measured after incubation at 37 °C for 18–24 h.

MDR E. coli CVCC195 [3] = experiment: SEM and TEM, cell morphology and ultrastructure; assay type: cell-based, Escherichia coli; conditions: E. coli CVCC195, 4 × MIC, 2 h; at least 200 cells scored; manuscript lines quoted in the peer review file
Method: SEM was used to examine the ultrastructural changes in bacteria treated with peptides. […] PBS was used as the negative control. After centrifugation, the bacterial precipitation was added with 2.5% glutaraldehyde and the cells were fixed at 4 °C for 24 h. After ethanol dehydration, drying and coating, samples were visualized by a QUANTA200 SEM (FEI, Philips, Netherlands)[65].
The processing and preparation of TEM samples was similar to that of SEM until glutaraldehyde fixation. After washing with PBS, bacterial cells were fixed in 1% […] buffer for 1 h, dehydrated in a series of acetone (50–100%) and embedded, followed by preparation into ultra-thin sections and staining with 1% uranyl acetate. […] At least 200 bacterial cells were visualized and scored for the observed characteristics.

[4] = test system: binding of FITC-labeled LPS to RAW 264.7 cells; experiment: Binding of FITC-labeled LPS to macrophages (flow cytometry); assay type: cell-based, mouse; conditions: FITC-LPS 100 μg per ml, 0.1 μM peptide 1 h
Method: Similarly, after an incubation with FITC-labeled LPS and washing with medium, cells were incubated with rhodamine-labeled A6 or G6 (0.1 μM) at 37 °C for 1 h. After washing again, the effects of peptides on the binding of FITC-labeled LPS to the cells were analyzed by CLSM and flow cytometry, respectively.

E. coli LPS = experiment: Sepsis mouse model, survival after lethal LPS challenge; assay type: in vivo, ICR mice; conditions: mice, LPS 13.5 mg per kg i.p., 7 d, n = 5; for survival rate: 0.0625 μmol per kg; for mouse survival: 0.125 μmol per kg
Method: The mouse survival was recorded for 7 d. The mice injected with LPS or saline were used as negative or blank controls, respectively.

ERK1/2 phosphorylation = experiment: Western blotting of lung tissues, p-ERK1/2/ERK1/2; assay type: in vivo, mice; conditions: for densitometric analysis of p-ERK1/2/ERK1/2 ratio: LPS + substance, Mean; for attenuation of ERK1/2 phosphorylation: lung tissue 8 h, LPS 13.5 mg per kg, western blotting, densitometry
Method: Additionally, the mice were sacrificed at 8 h and the lung tissues were homogenized and suspended in […] HEPES buffer for 20 min according to standard procedures. After centrifugation at 4 °C for 20 min (12,000 rpm), the protein levels of supernatants were quantified using a Bradford protein assay kit. A total of 30 μg proteins were analyzed on an 8–12% sodium dodecyl sulfate-polyacrylamide gel electrophoresis (SDS-PAGE) gel and were immunoblotted onto PVDF membranes, followed by an incubation with the primary antibodies of p65, p-p65, extracellular signal-regulated kinase (ERK)1/2, p-ERK1/2, and IκBα overnight at 4 °C. After washing, the blots were incubated with the peroxidase conjugated goat-rabbit or goat-mouse antibodies. Relative protein expression levels were quantified by a densitometric measurement of chemiluminescence (ECL) reaction band. β-actin was used as the internal reference.

H-RVQGRWKVRASFFKEAAAKEAAAKGFAWNVCVYRNGVRVCHRRAN-OH (disulfide 31-40) [A6]
killing selectivity of peptides ([1]; time 0 min): 0.9569
killing selectivity of peptides ([1]; time 1 min): 0.7697
killing selectivity of peptides ([1]; time 3 min): 0.8015
killing selectivity of peptides ([1]; time 5 min): 0.5904
antibacterial activity after pH treatment (inhibition zone diameter), Mean (MDR E. coli CVCC195 [2]; pH=2 for 3 h): 1.463
antibacterial activity after pH treatment (inhibition zone diameter), Mean (MDR E. coli CVCC195 [2]; pH=4 for 3 h): 1.443
antibacterial activity after pH treatment (inhibition zone diameter), Mean (MDR E. coli CVCC195 [2]; pH=6 for 3 h): 1.4
antibacterial activity after pH treatment (inhibition zone diameter), Mean (MDR E. coli CVCC195 [2]; pH=8 for 3 h): 1.41
antibacterial activity after pH treatment (inhibition zone diameter), Mean (MDR E. coli CVCC195 [2]; pH=10 for 3 h): 1.4
abnormal cells in TEM (lysis, non-uniform cytoplasmic electron and morphologically abnormal cells) (MDR E. coli CVCC195 [3]): Approximately 75%
inhibition rate of FITC-labeled LPS binding to RAW 264.7 cells [4]: 33.2%
survival rate (E. coli LPS): 60%
mouse survival (E. coli LPS): 100%
densitometric analysis of p-ERK1/2/ERK1/2 ratio (ERK1/2 phosphorylation): 1.795
attenuation of ERK1/2 phosphorylation (ERK1/2 phosphorylation): moderately promoted the ERK1/2 phosphorylation

CC(C)[C@@H]1NC(=O)CNC(=O)[C@H](CC(N)=O)NC(=O)[C@H](CCCNC(=N)N)NC(=O)[C@H](Cc2ccc(O)cc2)NC(=O)[C@H](C(C)C)NC(=O)[C@@H](NC(=O)[C@@H](NC(=O)[C@H](CC(N)=O)NC(=O)[C@H](Cc2c[nH]c3ccccc23)NC(=O)[C@H](C)NC(=O)[C@H](Cc2ccccc2)NC(=O)CN)C(C)C)CSSC[C@@H](C(=O)N[C@@H](Cc2c[nH]cn2)C(=O)N[C@@H](CCCNC(=N)N)C(=O)N[C@@H](CCCNC(=N)N)C(=O)N[C@@H](C)C(=O)N[C@@H](CC(N)=O)C(=O)O)NC(=O)[C@H](C(C)C)NC(=O)[C@H](CCCNC(=N)N)NC1=O [N6] (H-GFAWNVCVYRNGVRVCHRRAN-OH; disulfide 7-16; N-terminus and C-terminus assumed)
killing selectivity of peptides ([1]; time 0 min): 0.9569
killing selectivity of peptides ([1]; time 1 min): 0.9093
killing selectivity of peptides ([1]; time 3 min): 0.8204
killing selectivity of peptides ([1]; time 5 min): 0.6732
antibacterial activity after pH treatment (inhibition zone diameter), Mean (MDR E. coli CVCC195 [2]; pH=2 for 3 h): 1.883
antibacterial activity after pH treatment (inhibition zone diameter), Mean (MDR E. coli CVCC195 [2]; pH=4 for 3 h): 1.877
antibacterial activity after pH treatment (inhibition zone diameter), Mean (MDR E. coli CVCC195 [2]; pH=6 for 3 h): 1.87
antibacterial activity after pH treatment (inhibition zone diameter), Mean (MDR E. coli CVCC195 [2]; pH=8 for 3 h): 1.86
antibacterial activity after pH treatment (inhibition zone diameter), Mean (MDR E. coli CVCC195 [2]; pH=10 for 3 h): 1.887
abnormal cells in TEM (lysis, non-uniform cytoplasmic electron and morphologically abnormal cells) (MDR E. coli CVCC195 [3]): 19%
inhibition rate of FITC-labeled LPS binding to RAW 264.7 cells [4]: 8%
mouse survival (E. coli LPS): 60%
survival (E. coli LPS; 0.25 μmol per kg): All mice survived
densitometric analysis of p-ERK1/2/ERK1/2 ratio (ERK1/2 phosphorylation): 0.9271
attenuation of ERK1/2 phosphorylation (ERK1/2 phosphorylation): 16.1%

polymyxin B [PMB]
abnormal cells in TEM (lysis, non-uniform cytoplasmic electron and morphologically abnormal cells) (MDR E. coli CVCC195 [3]): 1%
inhibition rate of FITC-labeled LPS binding to RAW 264.7 cells [4]: 13.5%
survival (E. coli LPS; 10 μmol per kg): All mice survived
densitometric analysis of p-ERK1/2/ERK1/2 ratio (ERK1/2 phosphorylation): 1.579
attenuation of ERK1/2 phosphorylation (ERK1/2 phosphorylation): moderately promoted the ERK1/2 phosphorylation

CC(C)[C@@H]1NC(=O)CNC(=O)[C@H](CC(N)=O)NC(=O)[C@H](CCCNC(=N)N)NC(=O)[C@H](Cc2ccc(O)cc2)NC(=O)[C@H](C(C)C)NC(=O)[C@@H](NC(=O)[C@@H](NC(=O)[C@H](CC(N)=O)NC(=O)[C@H](Cc2c[nH]c3ccccc23)NC(=O)[C@H](C)NC(=O)[C@H](Cc2ccccc2)NC(=O)CNC(=O)[C@H](CO)NC(=O)CNC(=O)CNC(=O)CNC(=O)CNC(=O)[C@H](CCCCN)NC(=O)[C@H](Cc2ccccc2)NC(=O)[C@H](Cc2ccccc2)NC(=O)[C@H](CO)NC(=O)[C@H](C)NC(=O)[C@H](CCCNC(=N)N)NC(=O)[C@@H](NC(=O)[C@H](CCCCN)NC(=O)[C@H](Cc2c[nH]c3ccccc23)NC(=O)[C@H](CCCNC(=N)N)NC(=O)CNC(=O)[C@H](CCC(N)=O)NC(=O)[C@@H](NC(=O)[C@@H](N)CCCNC(=N)N)C(C)C)C(C)C)C(C)C)CSSC[C@@H](C(=O)N[C@@H](Cc2c[nH]cn2)C(=O)N[C@@H](CCCNC(=N)N)C(=O)N[C@@H](CCCNC(=N)N)C(=O)N[C@@H](C)C(=O)N[C@@H](CC(N)=O)C(=O)O)NC(=O)[C@H](C(C)C)NC(=O)[C@H](CCCNC(=N)N)NC1=O [G6] (H-RVQGRWKVRASFFKGGGGSGFAWNVCVYRNGVRVCHRRAN-OH; disulfide 26-35)
killing selectivity of peptides ([1]; time 0 min): 0.9569
killing selectivity of peptides ([1]; time 1 min): 0.5118
killing selectivity of peptides ([1]; time 3 min): 0.1311
antibacterial activity after pH treatment (inhibition zone diameter), Mean (MDR E. coli CVCC195 [2]; pH=2 for 3 h): 1.407
antibacterial activity after pH treatment (inhibition zone diameter), Mean (MDR E. coli CVCC195 [2]; pH=4 for 3 h): 1.44
antibacterial activity after pH treatment (inhibition zone diameter), Mean (MDR E. coli CVCC195 [2]; pH=6 for 3 h): 1.4
antibacterial activity after pH treatment (inhibition zone diameter), Mean (MDR E. coli CVCC195 [2]; pH=8 for 3 h): 1.383
antibacterial activity after pH treatment (inhibition zone diameter), Mean (MDR E. coli CVCC195 [2]; pH=10 for 3 h): 1.387
abnormal cells in TEM (lysis, non-uniform cytoplasmic electron and morphologically abnormal cells) (MDR E. coli CVCC195 [3]): ~50%
inhibition rate of FITC-labeled LPS binding to RAW 264.7 cells [4]: 44.3%
survival rate (E. coli LPS): 80%
mouse survival (E. coli LPS): 100%
densitometric analysis of p-ERK1/2/ERK1/2 ratio (ERK1/2 phosphorylation): 0.1248
attenuation of ERK1/2 phosphorylation (ERK1/2 phosphorylation): 88.2%

From article PMC6978316, “Development of chimeric peptides to facilitate the neutralisation of lipopolysaccharides during bactericidal targeting of multidrug-resistant Escherichia coli” (Communications Biology, 2020)
